Reference: patent US11826399B2, “Chlorotoxin agents and uses thereof” (Eisai Inc., priority 2017, dated 2023)
Where “and” joins values, the source holds several entries; their conditions need not be identical. Identical values can stand only once.

Experiment: Plasma and tissue distribution of Cryptophycin Payload and Cryptophycin Metabolite 1 after Cryptophycin Payload alone or with CTX in PC-3 xenograft nude mice (LC-MS/MS)
Type: in vivo, mouse
Experimental: For the present experiment, materials, methods, drugs and model were as described in Example 21. […] Following intravenous administration, whole blood samples were collected at predetermined time points via cardiac puncture (n=3 mice per time point). Blood samples were centrifuged to obtain plasma and subsequently stored at […] or lower pending analysis. Additionally, at each time point, kidney, liver, small intestine, brain, heart, and tumor were harvested by removing entire specimen from surrounding tissues (only a portion of liver and small intestine were removed). After removal, tissues were rinsed with normal saline solution (contents of small intestine were emptied) and blotted dry with clean adsorptive tissue. Once dried, the specimens were weighed and stored at −20° C. or lower pending analysis. […] Pharmacokinetic (PK) parameters were calculated. Mean plasma and tissue concentrations were used to calculate mean PK parameters. Skin and skeletal muscle which were not assessed due to difficulty of homogenization.
Vehicle for single dose group was 10% ethanol, 5% Tween 80, 85% saline. Vehicle for combination treatment was 5% ethanol, 2.5% Tween 80, 92.5% saline.

[1] = Payload 0.4 mg/kg + CTX 16 mg/kg IV, 24 h
[2] = Payload 0.4 mg/kg IV alone, 0.083 h
[3] = Payload 0.4 mg/kg IV alone, 0.5 h
[4] = Payload 0.4 mg/kg IV alone, 1 h
[5] = Payload 0.4 mg/kg IV alone, 2 h
[6] = Payload 0.4 mg/kg IV alone, 6 h
[7] = Payload 0.4 mg/kg IV alone, 24 h
[8] = Plasma, Payload 0.4 mg/kg + CTX 16 mg/kg IV
[9] = Plasma, Payload 0.4 mg/kg IV alone
[10] = Small Intestine, Payload 0.4 mg/kg + CTX 16 mg/kg IV
[11] = Small Intestine, Payload 0.4 mg/kg IV alone
[12] = Tumor, Payload 0.4 mg/kg + CTX 16 mg/kg IV
[13] = Tumor, Payload 0.4 mg/kg IV alone

CCCCNC(=O)Cc1ccccc1SSC(C)(C)CCN1CCN(Cc2ccc(C3OC3C(C)C3CC=CC(=O)NC(Cc4ccc(OC)c(Cl)c4)C(=O)NCC(C)(C)C(=O)NC(CC(C)C)C(=O)O3)cc2)CC1 (stereo not drawn) [Cryptophycin Payload]
Concentration of Cryptophycin Payload, Liver, Mean [1]: BLQ | Concentration of Cryptophycin Payload, Plasma, Mean [1]: BLQ | Concentration of Cryptophycin Payload, Small Intestine, Mean [1]: BLQ | Concentration of Cryptophycin Payload, Tumor, Mean [1]: BLQ | Concentration of Cryptophycin Payload, Brain, Mean [2]: 8.32 ng/g | Concentration of Cryptophycin Payload, Heart, Mean [2]: 63.2 ng/g | Concentration of Cryptophycin Payload, Kidney, Mean [2]: 533 ng/g | Concentration of Cryptophycin Payload, Liver, Mean [2]: 6.02 ng/g | Concentration of Cryptophycin Payload, Plasma, Mean [2]: 493 ng/mL | Concentration of Cryptophycin Payload, Small Intestine, Mean [2]: 53.3 ng/g | Concentration of Cryptophycin Payload, Tumor, Mean [2]: 11.6 ng/g | Concentration of Cryptophycin Payload, Brain, Mean [3]: 1.42 ng/g | Concentration of Cryptophycin Payload, Heart, Mean [3]: 18.9 ng/g | Concentration of Cryptophycin Payload, Kidney, Mean [3]: 320 ng/g | Concentration of Cryptophycin Payload, Liver, Mean [3]: 1.92 ng/g | Concentration of Cryptophycin Payload, Plasma, Mean [3]: 36.3 ng/mL | Concentration of Cryptophycin Payload, Small Intestine, Mean [3]: 13.6 ng/g | Concentration of Cryptophycin Payload, Tumor, Mean [3]: 4.11 ng/g | Concentration of Cryptophycin Payload, Brain, Mean [4]: 0.673 ng/g | Concentration of Cryptophycin Payload, Heart, Mean [4]: 7.91 ng/g | Concentration of Cryptophycin Payload, Kidney, Mean [4]: 158 ng/g | Concentration of Cryptophycin Payload, Liver, Mean [4]: 3.32 ng/g | Concentration of Cryptophycin Payload, Plasma, Mean [4]: 11.0 ng/mL | Concentration of Cryptophycin Payload, Small Intestine, Mean [4]: 6.55 ng/g | Concentration of Cryptophycin Payload, Tumor, Mean [4]: 2.14 ng/g | Concentration of Cryptophycin Payload, Brain, Mean [5]: 0.436 ng/g | Concentration of Cryptophycin Payload, Heart, Mean [5]: 3.28 ng/g | Concentration of Cryptophycin Payload, Kidney, Mean [5]: 93.8 ng/g | Concentration of Cryptophycin Payload, Liver, Mean [5]: 1.29 ng/g | Concentration of Cryptophycin Payload, Plasma, Mean [5]: 5.30 ng/mL | Concentration of Cryptophycin Payload, Small Intestine, Mean [5]: 6.41 ng/g | Concentration of Cryptophycin Payload, Tumor, Mean [5]: 2.41 ng/g | Concentration of Cryptophycin Payload, Brain, Mean [6]: BLQ | Concentration of Cryptophycin Payload, Heart, Mean [6]: 0.885 ng/g | Concentration of Cryptophycin Payload, Kidney, Mean [6]: 20.4 ng/g | Concentration of Cryptophycin Payload, Liver, Mean [6]: 0.948 ng/g | Concentration of Cryptophycin Payload, Plasma, Mean [6]: 0.492 ng/mL | Concentration of Cryptophycin Payload, Small Intestine, Mean [6]: 2.17 ng/g | Concentration of Cryptophycin Payload, Tumor, Mean [6]: 1.03 ng/g | Concentration of Cryptophycin Payload, Brain, Mean [7]: BLQ | Concentration of Cryptophycin Payload, Heart, Mean [7]: BLQ | Concentration of Cryptophycin Payload, Kidney, Mean [7]: 3.79 ng/g | Concentration of Cryptophycin Payload, Liver, Mean [7]: BLQ | Concentration of Cryptophycin Payload, Plasma, Mean [7]: BLQ | Concentration of Cryptophycin Payload, Small Intestine, Mean [7]: 2.31 ng/g | Concentration of Cryptophycin Payload, Tumor, Mean [7]: 0.335 ng/g | AUC(0-inf) of Cryptophycin Payload [8]: 129 ng·h/mL | AUC(0-t) of Cryptophycin Payload [8]: 128 ng·h/mL | CL of Cryptophycin Payload [8]: 51.8 mL/min/kg | Vss of Cryptophycin Payload [8]: 2.28 L/kg | t1/2 of Cryptophycin Payload [8]: 50.9 min | AUC(0-inf) of Cryptophycin Payload [9]: 154 ng·h/mL | AUC(0-t) of Cryptophycin Payload [9]: 153 ng·h/mL | CL of Cryptophycin Payload [9]: 43.3 mL/min/kg | Vss of Cryptophycin Payload [9]: 1.15 L/kg | t1/2 of Cryptophycin Payload [9]: 67.8 min | AUC(0-inf) of Cryptophycin Payload [10]: 36.4 ng·h/g | AUC(0-t) of Cryptophycin Payload [10]: 34.9 ng·h/g | t1/2 of Cryptophycin Payload [10]: 76.2 min | tmax of Cryptophycin Payload [10]: 4.8 min | TPI of Cryptophycin Payload (Small Intestine, Payload 0.4 mg/kg + CTX 16 mg/kg IV, AUC0-inf tissue/AUC0-inf plasma): 0.282 mL/g | AUC(0-t) of Cryptophycin Payload [11]: 81.6 ng·h/g | tmax of Cryptophycin Payload [11]: 4.98 min and 4.8 min | TPI of Cryptophycin Payload (Small Intestine, Payload 0.4 mg/kg IV alone, AUC0-6 h tissue/AUC0-6 h plasma): 0.268 mL/g and 0.268^c mL/g | AUC(0-t) of Cryptophycin Payload [12]: 42.7 ng·h/g | tmax of Cryptophycin Payload [12]: 4.8 min | TPI of Cryptophycin Payload (Tumor, Payload 0.4 mg/kg + CTX 16 mg/kg IV, AUC0-6 h tissue/AUC0-6 h plasma): 0.334 mL/g and 0.334^c mL/g | AUC(0-inf) of Cryptophycin Payload [13]: 28.8 ng·h/g | AUC(0-t) of Cryptophycin Payload [13]: 24.9 ng·h/g | t1/2 of Cryptophycin Payload [13]: 506 min | tmax of Cryptophycin Payload [13]: 4.98 min and 4.8 min | TPI of Cryptophycin Payload (Tumor, Payload 0.4 mg/kg IV alone, AUC0-inf tissue/AUC0-inf plasma): 0.187 mL/g
